We go through 5 compounds from patent US5876751A, “Antispasmodic and antinflammatory composition and a process for the manufacture thereof” (priority 1996, dated 1999).

For data set [1] the following is noted: cited from earlier work.
Data set [2] concerns rat colon. As to the kind of experiment: Inhibition of acetylcholine-induced contraction in isolated distal portion of colon of rat, without and with diclofenac sodium. As to conditions: for inhibition at 0.0005 µg/mL / inhibition at 0.001 µg/mL / inhibition at 0.002 µg/mL / inhibition at 0.01 µg/mL / inhibition at 0.02 µg/mL / inhibition at 0.04 µg/mL / inhibition at 0.08 µg/mL: Rattus norvegicus, Ach 100 ng/ml; for inhibition at 0.0005 µg/mL: fenpiverinium bromide 0.5 ng/ml; for inhibition at 0.001 µg/mL: fenpiverinium bromide 1.0 ng/ml; for inhibition at 0.002 µg/mL: fenpiverinium bromide 2.0 ng/ml; for inhibition at 0.01 µg/mL: pitofenone HCl 10 ng/ml; for inhibition at 0.02 µg/mL: pitofenone HCl 20 ng/ml; for inhibition at 0.04 µg/mL: pitofenone HCl 40 ng/ml; for inhibition at 0.08 µg/mL: pitofenone HCl 80 ng/ml. Here is the method: In order to see the effect of NSAID on the antispasmodic activity of pitifenone hydrochloride and fenpiverinium bromide an experiment was conducted on standard isolated tissues of experimental animal. The tissue chosen for the experiment was the distal portion of colon of rat. The NSAID selected for the experiment was diclofenac sodium. The percentage inhibition of acetylcholine-induced contraction (at dosage level of 100 ng/m) was studied with varied concentration of pitofenone hydrochloride in the dose range of 10-80 nano gm/ml. […] The data obtained in the experiment is collected in Table -2.

For data set [3] the following is noted: Brogden et al, Drugs 20;24-48 (1980); cited from earlier work.
For data set [4] the following is noted: in vivo; cited from earlier work.
The mark [5] stands for this setting: before diclofenac Na, read-out: Percentage inhibition of Ach induced contraction, before diclofenac Na.
The mark [6] stands for this setting: with diclofenac sodium (20 μgm/ml), read-out: Percentage inhibition of Ach induced contraction, after diclofenac Na.
[7] abbreviates: with diclofenac sodium 20 μg/ml, read-out: Percentage inhibition of Ach induced contraction, after diclofenac Na.

By inhibition is commonly meant the share of the control response that was lost under treatment.

Where a name gives a salt, the structure may show the parent alone. Read-outs that look alike come from different tables or passages of the source.

On to `O=C(O)Cc1ccccc1Nc1c(Cl)cccc1Cl` [diclofenac sodium], for which the “side effects vs pethidine intramuscular” value in data set [1] (intramuscular, acute renal colic) is “fewer side effects”. Moreover, the “effectiveness in the management of acute renal colic vs pethidine intramuscular” value in data set [1] (intramuscular) is recorded as “more effective than narcotic analgesic like pethidine intramuscular”.
Turning to `C[N+]1(CCC(C(N)=O)(c2ccccc2)c2ccccc2)CCCCC1` [Fenpiverinium Bromide, fenpiverinium bromide], in data set [2] (setting [5]), the inhibition at 0.0005 µg/mL turned out to be 43.8%, the inhibition at 0.001 µg/mL stood at 78.7% and the inhibition at 0.002 µg/mL is 100%. Further, in data set [2] (setting [6]), the inhibition at 0.0005 µg/mL is 100%, the inhibition at 0.001 µg/mL came to 100% and the inhibition at 0.002 µg/mL was found to be 100%.
For the compound `O=C(O)Cc1ccccc1Nc1c(Cl)cccc1Cl` [diclofenac], the “potentiation of antispasmodic action of pitofenone hydrochloride and fenpiverinium bromide” value in data set [2] (general statement of findings) was “potentiates the antispasmodic action of pitofenone hydrochloride and fenpiverinium bromide several times”. For the same compound, the “action with pitofenone hydrochloride as an antispasmodic” value in data set [2] (rat colon, diclofenac sodium 20 μg/ml, pitofenone HCl 10-80 ng/ml) is recorded as “synergistic (potentiating) action”. Also, in data set [2] (rat colon, diclofenac sodium 20 μgm/ml, fenpiverinium bromide 0.5-2 ng/ml), the “action with fenpiverinium bromide as an antispasmodic” value was “synergistic (potentiating) action”. Moreover, the reported pharmacological activity result in data set [3] was “anti inflammatory activity, analgesic activity and anti pyretic activity”. Moreover, the “use in painful non-rheumatic syndromes” value in data set [1] (biliary colic (Grossi et al.), acute renal colic (Garcia Alonso et al.)) is “of use in painful non-rheumatic syndromes”.
As for `Cc1c(N(C)CS(=O)(=O)O)c(=O)n(-c2ccccc2)n1C` [Analgin], the bone marrow depression result in data set [4] is reported as “implicated in causing bone marrow depression”.
For the compound `COC(=O)c1ccccc1C(=O)c1ccc(OCCN2CCCCC2)cc1` [Pitofenone Hcl, pitofenone hydrochloride], in data set [2] (setting [5]), the inhibition at 0.01 µg/mL turned out to be 0%, the inhibition at 0.02 µg/mL amounted to 0%, the inhibition at 0.04 µg/mL stood at 0% and the inhibition at 0.08 µg/mL was determined as 20.2%. Also, in data set [2] (setting [7]), the inhibition at 0.01 µg/mL worked out at 100%, the inhibition at 0.02 µg/mL came to 100%, the inhibition at 0.04 µg/mL worked out at 100% and the inhibition at 0.08 µg/mL worked out at 100%.
